# Data taken from patent US5491135A (priority 1993, dated 1996).
# “And” between values parts separate entries of the source, which are not always exact repeats. Equal values may be shown once. “Also recorded” adds a separate entry of the source.
# Tested on: HCMV strain AD 169
# Assay: Rabbit HCMV ascending dose efficacy and time course recovery (Example 7)
# Conditions: for Vitreo-retinal score: sum of both eyes
# [1] = day 3, PALA 75 mg/kg/d, with or without steroid
# [2] = day 3, PALA 50 or DHPG 10 mg/kg/d
# [3] = day 4, PALA 75 mg/kg/d, with or without steroid
# [4] = day 4, PALA 50 or DHPG 10 mg/kg/d
# [5] = day 5, PALA 75 mg/kg/d, with or without steroid
# [6] = day 5, PALA 50 or DHPG 10 mg/kg/d
# [7] = day 6, PALA 75 mg/kg/d, with or without steroid
smiles,measurement,setting,value
O=C(O)C[C@H](NC(=O)CP(=O)(O)O)C(=O)O [PALA],HCMV recovery vs placebo,PALA 75 mg/kg/day,comparable to placebo therapy
same,clinical disease / efficacy,"PALA 75 mg/kg/day i.v., with or without steroid",vitreitis increased through day 6 post inoculation; also recorded: not improved when compared to the 50 mg/kg/day PALA dose or to the 10 mg/kg/day DHPG dose
same,HCMV recovery vs placebo,PALA 100 mg/kg/day,significantly higher than HCMV recovery in placebo treated animals
same,clinical disease / efficacy,PALA 100 mg/kg/day i.v.,"Both the vitreitis and optic nerve head disease severity were increased compared to other single-agent PALA, DHPG and placebo therapies; also recorded: not effective in reducing the clinical disease progression or HCMV recovery"
same,toxicity,PALA 100 mg/kg/day i.v.,toxic to the animals; also recorded: animal died prior
same,clinical disease / efficacy,PALA 50 or DHPG 10 mg/kg/day i.v.,vitreitis increased through day 6 post inoculation; also recorded: optic nerve head pathology peaked on day 4 after inoculation and decreased to low levels
same,"HCMV Recovered, OD",[1],+
same,"HCMV Recovered, OS",[1],+
same,"HCMV Titer, OD",[1],10^5 pfu and 10^4 pfu
same,"HCMV Titer, OS",[1],10^4 pfu
same,HCMV recovery frequency,[1],4/4
same,Optic neuritis score (ONH),[1],2.0
same,Vitreo-retinal score,[1],2.25 and 1.5
same,Average HCMV titer,"day 3, PALA 100 mg/kg/d",10^4 pfu
same,"HCMV Recovered, OD","day 3, PALA 100 mg/kg/d",+
same,"HCMV Recovered, OS","day 3, PALA 100 mg/kg/d",+
same,"HCMV Titer, OD","day 3, PALA 100 mg/kg/d",10^4 pfu
same,"HCMV Titer, OS","day 3, PALA 100 mg/kg/d",10^3 pfu
same,HCMV recovery frequency,"day 3, PALA 100 mg/kg/d",4/4
same,Optic neuritis score (ONH),"day 3, PALA 100 mg/kg/d",2.0 and 3.0
same,Vitreo-retinal score,"day 3, PALA 100 mg/kg/d",1.0 and 0.75
same,"HCMV Recovered, OD",[2],+
same,"HCMV Recovered, OS",[2],+
same,"HCMV Titer, OD",[2],10^3 pfu and 10^4 pfu
same,"HCMV Titer, OS",[2],10^4 pfu and 10^3 pfu
same,HCMV recovery frequency,[2],4/4
same,Optic neuritis score (ONH),[2],2.0
same,Vitreo-retinal score,[2],1.0 and 1.5
same,"HCMV Recovered, OD",[3],+
same,"HCMV Recovered, OS",[3],+ and -
same,"HCMV Titer, OD",[3],10^4 pfu
same,"HCMV Titer, OS",[3],10^3 pfu
same,HCMV recovery frequency,[3],3/4
same,Optic neuritis score (ONH),[3],4.0 and 5.0
same,Vitreo-retinal score,[3],2.75 and 3.5
same,Average HCMV titer,"day 4, PALA 100 mg/kg/d",10^3 pfu
same,"HCMV Recovered, OD","day 4, PALA 100 mg/kg/d",+
same,"HCMV Recovered, OS","day 4, PALA 100 mg/kg/d",+
same,"HCMV Titer, OD","day 4, PALA 100 mg/kg/d",10^5 pfu and 10^3 pfu
same,"HCMV Titer, OS","day 4, PALA 100 mg/kg/d",10^3 pfu and 10^4 pfu
same,HCMV recovery frequency,"day 4, PALA 100 mg/kg/d",3/4
same,Optic neuritis score (ONH),"day 4, PALA 100 mg/kg/d",6.0 and 5.0
same,Vitreo-retinal score,"day 4, PALA 100 mg/kg/d",4.5 and 3.75
same,"HCMV Recovered, OD",[4],- and +
same,"HCMV Recovered, OS",[4],-
same,"HCMV Titer, OD",[4],10^4 pfu
same,HCMV recovery frequency,[4],1/4
same,Optic neuritis score (ONH),[4],2.0 and 3.0
same,Average HCMV titer,[5],10^2 pfu
same,"HCMV Recovered, OD",[5],-
same,"HCMV Recovered, OS",[5],- and +
same,"HCMV Titer, OS",[5],10^2 pfu
same,HCMV recovery frequency,[5],1/4
same,Optic neuritis score (ONH),[5],3.0 and 5.0
same,Vitreo-retinal score,[5],1.75 and 3.5
same,Average HCMV titer,"day 5, PALA 100 mg/kg/d",10^2 pfu
same,"HCMV Recovered, OD","day 5, PALA 100 mg/kg/d",-
same,"HCMV Recovered, OS","day 5, PALA 100 mg/kg/d",+ and -
same,"HCMV Titer, OS","day 5, PALA 100 mg/kg/d",10^2 pfu
same,HCMV recovery frequency,"day 5, PALA 100 mg/kg/d",1/4
same,HCMV titer,"day 5, PALA 100 mg/kg/d",10^2 pfu/ml
same,Optic neuritis score (ONH),"day 5, PALA 100 mg/kg/d",5.0 and 4.0
same,Vitreo-retinal score,"day 5, PALA 100 mg/kg/d",3.5 and 3.0
same,Average HCMV titer,[6],10^1 pfu
same,"HCMV Recovered, OD",[6],- and +
same,"HCMV Recovered, OS",[6],+ and -
same,"HCMV Titer, OD",[6],10^2 pfu
same,"HCMV Titer, OS",[6],10^2 pfu
same,HCMV recovery frequency,[6],2/4
same,Optic neuritis score (ONH),[6],1.0
same,Vitreo-retinal score,[6],0.65 and 1.25
same,"HCMV Titer, OS","day 6, PALA 50 mg/kg/d",10^3 pfu and 10^2 pfu
same,HCMV titer,"day 6, PALA 50 mg/kg/d",10^2 pfu/ml
same,"HCMV Recovered, OD",[7],+ and -
same,"HCMV Recovered, OS",[7],+ and -
